Legend:
Helicobacter pylori = settings: In China; cited from earlier work
[1] = human, in vivo
Method: The 40 patients were randomly allocated to four groups at a ratio of 1:1:1:1. […] The detection linear range was as below: • Compound I: Lower Limit Of Quantitation (LLOQ): 1.00 ng/mL; Upper Limit Of Quantitation (ULOQ): 1,000 ng/mL • Rabeprazole sodium: LLOQ: 2.00 ng/mL; […] […] Pharmacokinetics Evaluation Plasma drug concentrations of various groups at different time points were determined, including: arithmetic mean, standard deviation, minimum, median, maximum, geometric mean, coefficient of variation, and coefficient of geometric variation. The pharmacokinetic parameters calculated from the first and last administration were descriptively analyzed according to various trial groups, including: arithmetic mean, standard deviation, minimum value, median, maximum value, geometric mean, coefficient of variation, geometric coefficient of variation, etc. In addition, the accumulation index AUC0-tau, ss(D15)/AUC0-tau (D1) was calculated. […]

| Effect of amoxicillin on the major pharmacokinetic parameters of rabeprazole [1] | Structure (SMILES) | Resistance rate of Helicobacter pylori (Helicobacter pylori) |
| --- | --- | --- |
| – | Cc1ncc([N+](=O)[O-])n1CCO [metronidazole] | 40-70% |
| no significant effect | COCCCOc1ccnc(C[S+]([O-])c2nc3ccccc3[n-]2)c1C.[Na+] (centres unmarked) [rabeprazole, rabeprazole sodium, reference compound] | – |

Reference: patent US12005050B2, “Methods for preventing or treating H. pylori infection” (TENNOR THERAPEUTICS (SUZHOU) LIMITED, priority 2022, dated 2024)
